Measured values reported in patent US9126976B2 (Merck Sharp & Dohme Corp., priority 2011, dated 2015).

Columns and labels:
[1] = biological target: T1, CETP (Homo sapiens (Human), UniProt P11597); test: RTA assay, CETP-catalyzed CE and TG transfer, recombinant CETP (2% human serum); format: biochemical
Method: (§1) In Vitro Radioactive Assays of CETP-Catalyzed CE and TG Transfer (RTA Assay)
(§2) Reagents and sources are: [3H] cholesteryl oleate (GE #TRK.886), [3H] Triolein (Perkin-Elmer NET-431), Butylated hydroxyl toluene (Aldrich, #D4740-4), DOPC (Sigma, # P6354), Sodium Bromide (Fisher scientific #S255-500), PEG 8000 (Fisher, #BP233-1), and human HDL (Intracel Corp #RP-036).
(§3) An in vitro assay for determining IC50's to identify compounds that inhibit CETP transfer activity is performed based on a modification of a published method (Morton and Zilversmit, (1981) A plasma inhibitor of triglyceride and cholesteryl ester transfer activities, J. Biol. Chem. 256(23), 11992-11995). The ability of inhibitors to alter CETP activity is performed using two different assays: one using recombinant CETP and one using an endogenous plasma source of CETP. Both assays measure the transfer of [3H] cholesteryl oleate or [3H] triolein from exogenous LDL to HDL.
(§4) Radiolabeled donor particles are generated by first combining 100 μl of 200 μM butylated hydroxyl toluene in CHCl3, 216 μL of 21.57 mM DOPC in EtOH, and either 500 μCi [3H]-triolein (Perkin Elmer #NET-431) or 500 μCi [3H]-cholesteryl oleate (GE #TRK886) in a glass tube. Reagents are mixed, dried under nitrogen, and then resuspended in 2 mL of 50 mM Tris, 27 μM EDTA at pH 7.4. After a brief vortex, the solution is sonicated until clear and mixed with 20 mL of fresh human serum. The mixture is incubated overnight at 37° C. The [3H] labeled LDL substrate is separated at 1.063 g/ml density by sequential ultracentrifugal flotation in NaBr according to the method by (Havel, Eder et al. 1955; Chapman, Goldstein et al. 1981). Once isolated the particles are dialyzed 3× in CETP buffer (50 mM Tris, pH 7.4, 100 mM NaCl, 1 mM EDTA). Human HDL is purchased from Intracel and used as the acceptor particles.
(§5) Transfer assays are performed in a 96-well v-bottom polypropylene plate. For the RTA using recombinant CETP (2% RTA), an assay cocktail is prepared with the final concentrations 128 μg/mL HDL, 20 nM rCETP, 2% human serum, and 1×CETP buffer. 1 μL of each test compound diluted in DMSO is added to 47 μL of assay cocktail per well and incubated at 37° C. for 1 hour. To initiate the transfer reaction, 2 μL radiolabeled LDL is added. After an additional 60 min of incubation at 37° C., the transfer action is terminated by precipitation of LDL with an equal volume of 20% W/V PEG 8000. The plates are centrifuged at 2000 rpm for 30 minutes at 4° C. A 40 μL aliquot of the HDL-containing supernatant is transferred to a Packard Optiplate™ with 200 μL of MicroScint™ 20. After mixing, plates are counted by liquid scintillation. Counts present in the supernatant for blanks (wells containing only HDL acceptor, CETP buffer and DMSO) are subtracted from those containing test compounds and used to correct for non-specific transfer.
Comparison of the counts of samples with inhibitors to an uninhibited (DMSO only) positive control yield a percent inhibition. A plot of percent inhibition vs. log of inhibitor concentration, fit to a Sigmoidal 4 parameter equation is used to calculate IC50.
Target sequence in this assay (P11597 18-493 limits assumed): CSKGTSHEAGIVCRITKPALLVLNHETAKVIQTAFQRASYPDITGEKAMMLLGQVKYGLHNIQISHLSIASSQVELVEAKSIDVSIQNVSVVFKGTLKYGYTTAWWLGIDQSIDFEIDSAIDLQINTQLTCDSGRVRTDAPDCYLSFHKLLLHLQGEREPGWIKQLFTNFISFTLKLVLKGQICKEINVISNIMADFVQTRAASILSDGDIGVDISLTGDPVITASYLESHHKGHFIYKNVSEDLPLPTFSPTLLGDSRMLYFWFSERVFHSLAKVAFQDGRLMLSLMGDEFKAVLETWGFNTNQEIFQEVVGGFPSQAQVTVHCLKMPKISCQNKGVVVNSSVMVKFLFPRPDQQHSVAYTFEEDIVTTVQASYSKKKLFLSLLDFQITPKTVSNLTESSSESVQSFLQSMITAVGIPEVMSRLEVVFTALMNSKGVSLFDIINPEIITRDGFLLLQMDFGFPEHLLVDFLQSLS

[2] = biological target: T1, CETP; test: Scintillation Proximity Assay (SPA) for CETP activity; format: biochemical
Method: Protocol: Scintillation Proximity Assay (SPA) for CETP Activity
First, low density lipoprotein (LDL) (Meridian) was biotinylated by incubating LDL with biotin for 1 hour on ice, after which it was dialyzed to remove free biotin. Then compounds at varying concentrations were incubated with 15 nM CETP (reagent production group, In Vitro Pharmacology, MRL Rahway) and 50 ug/ml of the biotinylated LDL in 50 mM HEPES, 150 mM NaCl, pH 7.4, for 1 hour at 37° C. The reaction was started by adding 3H-cholesterol ester high density lipoprotein (HDL) (American Radiochemicals Corp) at a concentration of ˜0.6 nM. The reaction proceeded for 2 hours at 37° C., after which time it was quenched by the addition of 12% acetic acid. PVT streptavadin-coated scintillation proximity beads, which had been brought to room temperature, were then added at a concentration of 4 mg/ml. The assay was then mixed and counted after one half hour in a Microbeta plate reader.
Target sequence in this assay (P11597 18-493): as the sequence (P11597 18-493 limits assumed) above

[3] = biological target: endogenous CETP from serum (Homo sapiens (Human), UniProt P11597); test: RTA assay using endogenous CETP from serum (95% human serum); format: biochemical; details: RTA in 95% human serum, Table 2
endogenous CETP from serum, sequence (P11597 18-493 limits assumed): as above
Method: as §1, §2, §3, §4
as §5, with “Counts present in the supernatant for blanks (wells containing only HDL acceptor, CETP buffer and DMSO) are subtracted from those containing test compounds and used to correct for non-specific transfer.” left out

[4] = cited from earlier work
[5] = torcetrapib and atorvastatin concomitantly compared with atorvastatin alone; cited from earlier work
[6] = patients, with baseline statin therapy, compared with just a statin

| Structure (SMILES) | IC50 [1] [nM] | IC50 ([2]; Table 2, read-out: IC50 SPA) [nM] | also measured |
| --- | --- | --- | --- |
| O[C@H](CN1c2ccccc2N(Cc2cccc(OC(F)(F)F)c2)C[C@H]1c1ccccc1)C(F)(F)F [Example 1, (R)-3-((R)-4-(3-trifluoromethoxy)-2-phenyl-3,4-dihydroquinoxalin-1(2H)-yl)-1,1,1-trifluoropropan-2-ol] | 19 |  |  |
| O[C@@H](CN1c2ccccc2N(Cc2cccc(OC(F)(F)F)c2)C[C@H]1c1ccccc1)C(F)(F)F [Example 2, (S)-3-((R)-4-(3-trifluoromethoxy)-2-phenyl-3,4-dihydro-quinoxalin-1(2H)-yl)-1,1,1-trifluoro-propan-2-ol] | 1350 |  |  |
| O[C@H](CN1c2ccccc2N(Cc2cc(C(F)(F)F)cc(C(F)(F)F)c2)C[C@H]1c1ccccc1)C(F)(F)F [Example 3] | 74 |  |  |
| O[C@H](CN1c2ccccc2N(Cc2cccc(OC(F)(F)C(F)F)c2)C[C@H]1c1ccccc1)C(F)(F)F [Example 4, (R)-1,1,1-trifluoro-3-((R)-2-phenyl-4-(3-(1,1,2,2-tetrafluoroethoxy)benzyl)-3,4-dihydroquinoxalin-1(2H)-yl)-propan-2-ol] | 112 |  |  |
| O[C@H](CN1c2ccccc2N(Cc2cc(OC(F)(F)F)ccc2F)C[C@H]1c1ccccc1)C(F)(F)F [Example 5, (R)-1,1,1-trifluoro-3-((R)-4-(2-fluoro-5-(trifluoromethoxy)benzyl)-2-phenyl-3,4-dihydroquinoxalin-1(2H)-yl)-propan-2-ol] | 11 |  |  |
| CCc1cc(CN2C[C@@H](c3ccccc3)N(C[C@@H](O)C(F)(F)F)c3ccccc32)ccc1Cl [Example 6, (R)-3-((R)-4-(4-chloro-3-ethylbenzyl)-2-phenyl-3,4-dihydroquinoxalin-1(2H)-yl)-1,1,1-trifluoropropan-2-ol] | 30 |  |  |
| O[C@H](CN1c2ccccc2N(Cc2cccc(F)c2)C[C@H]1c1ccccc1)C(F)(F)F [Example 7, (R)-3-((R)-4-(3-fluorobenzyl)-2-phenyl-3,4-dihydroquinoxalin-1(2H)-yl)-1,1,1-trifluoropropan-2-ol] | 110 |  |  |
| CCOc1cccc(CN2C[C@@H](c3ccccc3)N(C[C@@H](O)C(F)(F)F)c3ccccc32)c1 [Example 8, (R)-3-((R)-4-(3-ethoxybenzyl)-2-phenyl-3,4-dihydroquinoxalin-1(2H)-yl)-1,1,1-trifluoropropan-2-ol] | 301 |  |  |
| O[C@H](CN1c2ccccc2N(Cc2cccc(C(F)(F)F)c2)C[C@H]1c1ccccc1)C(F)(F)F [Example 9, (R)-3-((R)-4-(3-trifluoromethylbenzyl)-2-phenyl-3,4-dihydroquinoxalin-1(2H)-yl)-1,1,1-trifluoropropan-2-ol] | 47 |  |  |
| O[C@H](CN1c2ccccc2N(Cc2cccc(OC(F)(F)F)c2)C[C@H]1c1ccccc1)C(F)(F)F [Example 17, (R)-3-((R)-4-(3-trifluoromethoxy)-2-phenyl-3,4-dihydroquinoxalin-1(2H)-yl)-1,1,1-trifluoro-propan-2-ol] | 34 |  |  |
| O[C@H](CN1c2ccccc2N(C2CCCc3ccccc32)CC1c1cccc(C(F)(F)F)c1)C(F)(F)F (stereo partly drawn) [Example 57, (2R)-1,1,1-trifluoro-3(4-(1,2,3,4-tetrahydronaphthalen-1-yl)-2-(3-trifluoromethyl)phenyl)-3,4-dihydroquinoxalin-1(2H)-yl-propan-2-ol] |  |  | IC50 ([2]; Table 1, read-out: IC50): 12 nM |
| O[C@H](CN1c2ccc(F)cc2N(Cc2cccc(OC(F)(F)F)c2)CC1c1cccc(OC(F)F)c1)C(F)(F)F (stereo partly drawn) [Example 58] |  |  | IC50 [3]: 16 nM |
| CC(C)(O)c1ccc(C2CN(Cc3cccc(OC(F)(F)F)c3)c3ccccc3N2C[C@@H](O)C(F)(F)F)cc1 (stereo partly drawn) [Example 59] |  |  | IC50 [3]: 24 nM |
| O[C@H](CN1c2ccccc2N(Cc2cccc(OC(F)F)c2)CC1c1cccc(OC(F)F)c1)C(F)(F)F (stereo partly drawn) [Example 60] |  |  | IC50 [3]: 14 nM |
| O[C@H](CN1c2ccccc2N(Cc2cccc(OC(F)(F)F)c2)CC1c1cccc(OC(F)F)c1)C(F)(F)F (stereo partly drawn) [Example 61] |  |  | IC50 [3]: 7.5 nM |
| O[C@H](CN1c2ccccc2N(Cc2ccnc(N3CCOCC3)c2)C[C@H]1c1cccc(C(F)(F)F)c1)C(F)(F)F [Example 62] |  | 326 |  |
| O[C@H](CN1c2ccccc2N(Cc2ncccc2N2CCOCC2)C[C@H]1c1cccc(C(F)(F)F)c1)C(F)(F)F [Example 63] |  | 1570 |  |
| O[C@H](CN1c2ccccc2N(Cc2cccc(OC(F)F)c2)C[C@H]1c1cccc(C(F)(F)F)c1)C(F)(F)F [Example 64] |  | 16 |  |
| O[C@H](CN1c2c(ccc(F)c2F)N(Cc2cccc(OC(F)(F)F)c2)CC1c1cccc(C(F)(F)F)c1)C(F)(F)F (stereo partly drawn) [Example 65] |  | 157 |  |
| O[C@H](CN1c2ccccc2N(CC2=CCCCC2)C[C@H]1c1cccc(OC(F)(F)F)c1)C(F)(F)F [Example 66] |  | 8 |  |
| O[C@H](CN1c2ccccc2N(CC2CCOCC2)C[C@H]1c1cccc(OC(F)(F)F)c1)C(F)(F)F [Example 67] |  | 29 |  |
| O[C@H](CN1c2ccccc2N(Cc2cccc(OC(F)(F)F)c2)CC1c1ccc(-c2ccccc2)cc1)C(F)(F)F (stereo partly drawn) [Example 68] |  | 25 |  |
| O[C@H](CN1c2ccccc2N(Cc2cccc(OC(F)(F)F)c2)CC1c1cccc(-c2ccccc2)c1)C(F)(F)F (stereo partly drawn) [Example 69] |  | 163 |  |
| COc1cc(F)c(C(C)C)cc1-c1ccc(C(F)(F)F)cc1CN1C(=O)O[C@H](c2cc(C(F)(F)F)cc(C(F)(F)F)c2)[C@@H]1C [anacetrapib] |  |  | increase in mortality ([4]; patients treated with anacetrapib): unlikely; decrease of LDL-C [4, 6]: 40%; increase of HDL-C [4, 6]: 138% |
| CCOC(=O)N1c2ccc(C(F)(F)F)cc2[C@@H](N(Cc2cc(C(F)(F)F)cc(C(F)(F)F)c2)C(=O)OC)C[C@H]1CC [torcetrapib] |  |  | mortality [5]: higher incidence of mortality |
